This note sets out measurements from article PMC8298232 (Archives of Toxicology, 2021).

Each structure is given as a SMILES string. Where “and” joins values, the source holds several entries; their conditions need not be identical. Equal values may be shown once.

The nature of series [1]: Shares of conjugated analytes in urine (analysis with and without β-glucuronidase/arylsulfatase hydrolysis). The settings on record: for Conjugation ratio: urine of one volunteer, with vs without hydrolysis. How it is done:
The analysis of urine samples was performed with and without hydrolysis for one volunteer to determine the shares of analytes conjugated with glucuronic acid or sulfate. Initially, urine samples were thawed, equilibrated to room temperature and homogenized using a vortex mixer. Afterwards, the Monovettes® were centrifuged for 2 min at 1600 g to sediment solid residue in the sample. 1 mL of the sample was transferred into a 15 mL conical tube (Sarstedt, Nümbrecht, Germany). Without hydrolysis, 1 mL of the urine samples was prepared with 200 μL of ammonium acetate buffer (1 mol/L, pH 6) and 10 μL of the internal standard mix solution. […] Finally, the calculated analyte excretion rates (see Sect. “Evaluation of renal elimination”) obtained with hydrolysis were correlated with the ones prepared without hydrolysis for every detected compound. A linear curve fit was applied to the plotted data points. The resulting slope of the regression line described the percentage of free and therefore unconjugated analyte.
Therefore, urine samples of one volunteer were analyzed with and without addition of β-glucuronidase/arylsulfatase from Helix pomatia and incubation according to the standard procedure previously published (Denghel and Göen [2020]) (see Sect. “Analysis of urine samples without hydrolysis”).

Another series is described as follows: clinical. The class given is in vivo, human. The following applies: for concentration at 24 h / half-life / Tmax / Cmax: both sexes; for share among the quantified metabolites in blood: blood samples 8 h after exposure, without hydrolysis. On the procedure: Furthermore, blood samples were drawn from each volunteer 2, 4, 6, 8, 10, 24, […] 48 h after exposure. In summary, […] blood samples were collected from every volunteer. One volunteer donated two EDTA—Monovettes® (Sarstedt, Nümbrecht, Germany) for every time point. So, for every sampling time one sample was kept as whole blood while the plasma fraction was extracted for the other. In this case, the respective blood vessels were centrifuged at 800 × g for 5 min. The supernatants were transferred to 15 mL conical plastic tubes (Sarstedt, Nümbrecht, Germany). Both blood and plasma samples were stored frozen at − 50 °C until analysis.
Analysis of blood samples was performed according to a previously published method (Denghel and Göen [2021]). In summary, blood proteins and cellular components were precipitated by the addition of ACN. Afterwards, the supernatant was diluted with sodium chloride solution and the investigated analytes were extracted by dispersive liquid–liquid microextraction (DLLME) using a mixture of CH2Cl2 and ACN. […] Variation coefficients ranged from 2 to 9% for precision in series and from 3 to 11% for interday precision. Additionally, relative recovery rates between 80 and 100% were found.
The ln-transformed mean excretion curve was plotted against the time (in h) to obtain the slope (kel, elimination rate constant) and the excretion half-life (t1/2) as follows: t1/2=ln2/|kel|.

The nature of series [2]: Distribution between blood compartments (plasma to blood ratio). Format: in vivo, human.
Procedure: Furthermore, blood samples were drawn from each volunteer 2, 4, 6, 8, 10, 24, 34 and 48 h after exposure. In summary, eight blood samples were collected from every volunteer. […] So, for every sampling time one sample was kept as whole blood while the plasma fraction was extracted for the other. In this case, the respective blood vessels were centrifuged at 800 × g for 5 min. The supernatants were transferred to 15 mL conical plastic tubes (Sarstedt, Nümbrecht, Germany). Both blood and plasma samples were stored frozen at − 50 °C until analysis.
Therefore, the concentrations of the analytes in whole blood and plasma were determined according to the SOP (Denghel and Göen [2021]) and an established procedure (see supplemental material), respectively. The results for whole blood and plasma were plotted against the time points of the respective sampling and the plasma to blood ratios (p/b) were calculated by a simplified approach for estimating the AUC ratios. Therefore, all plasma concentrations (in µg/L) determined were added and divided through the sum of the respective blood concentrations (in µg/L) according to the equation: p/b=∑i=0ncplasma/∑i=0ncblood.
Analysis of plasma samples
For the analysis of plasma samples, the procedure for blood samples was adjusted as follows: Initially, CPD plasma was equilibrated to room temperature and homogenized by manual shaking. Frozen samples of the study participants were thawed, equilibrated to room temperature, and homogenized using a vortex mixer. Aliquots of 1 mL were prepared with 10 µL of the internal standard mix. Afterwards, the plasma proteins were precipitated by the additions of 3 mL ACN with 0.1 % formic acid. The samples were vortex-blended for 1 min and centrifuged for 15 min at 3000 x g. The supernatants were transferred into 25 mL tubes with conical bottom (Sarstedt, Nümbrecht, Germany) and diluted with 4 mL of 1 % sodium chloride solution. Afterwards, a mixture of 800 µL CH 2Cl2 and 800 µL ACN was added to every tube. Again, the samples were vortex - blended for 1 min and centrifuged for 15 min at 3000 x g. The upper organic phases wer e transferred into 3 mL screw vials (Müller + Krempel AG, Bülach, Switzerland) and dried under nitrogen. The residues were derivatized with 90 µL BSA + 5 % TMCS. After 30 min reaction time at room temperature, 10 µL of 10 % TSIM were added. The samples wer e transferred to micro inserts, sealed with crimping caps, and incubated at 40 °C for 90 min. Finally, measurement was performed using GC -MS/MS
A short description of series [3]: Renal elimination kinetics of UV 328 and its metabolites in urine after single oral exposure. The following applies: for Tmax / half-life: both, human, urine, po; for half-life: t½ (renal elimination half-life); for REmax (maximum renal excretion rate): human urine with hydrolysis; for REmax (maximum renal excretion rate) / FUE after 24 h (urinary excretion factor as dose equivalents of UV 328) / FUE after 72 h ≙ Fraction of oral dose: mean ± SD; for FUE after 24 h (urinary excretion factor as dose equivalents of UV 328): 0–24 h; for FUE after 72 h ≙ Fraction of oral dose: 0–72 h; for share of cumulative amounts of all quantified analytes in urine: urine with hydrolysis, cumulative within 72 h. On the procedure:
Three volunteers (two men and one person, mean age 37.3 ± 15.5, mean body weight 81.3 ± 6.1 kg) were selected for the in vivo study. Prior to oral exposure, every volunteer collected one urine sample. Additionally, one blood sample was taken using EDTA-Monovettes® (Sarstedt, Nümbrecht, Germany) before exposure. […] Thereby, a safety factor of 100 was considered for single application and interspecies differences, resulting in a dose of 0.3 mg/kg bw. […] Participants collected the total urine volume of each void separately throughout 72 h and recorded the respective sampling times. […] The urine samples were volumetrically measured for each sampling point, aliquoted in urine Monovettes® (Sarstedt, Nümbrecht, Germany) and stored frozen at − 50 °C until analysis.
The urine samples were processed according to a previously published procedure (Denghel and Göen [2020]). In brief, urine samples were enzymatically hydrolyzed using β-glucuronidase/arylsulfatase from Helix pomatia. […] The extracts were derivatized with BSA/TMCS and TSIM and finally measured via GC–MS/MS with advanced electron ionization (AEI).
Thereby, RE,i is the renal excretion rate for the urine sample i (in µg/h), ci is the analyte concentration in the urine sample (in µg/L), Vi is the volume of the urine sample (in L) and ti and ti-1 are the elapsed time values (in h) of the sample and the previous sample, respectively.
Afterwards, the time course of the excretion rates RE,i was recorded for the middle of the respective sampling period (ti,m in h) according to the equation: ti,m=ti-1+ti-ti-1/2.
The current excretion rates were plotted as a function of the average time of the respective sampling period for every volunteer and each analyte.
Finally, mean excretion curves were calculated by taking the average of related urinary sampling times and the corresponding renal excretion rates (in µg/h) for all volunteers’ samples (arithmetic mean ± standard deviation). The mean cumulative excreted amount (in µmol) of all volunteers was obtained by addition of each molar excreted amount: ∑i=0nci×Vi/M.
Thereby, ci is the concentration of the metabolite in urine (in µg/L), Vi is the volume of the respective urine sample (in L) and M is the molar mass of the respective metabolite (in µg/µmol).
Afterwards, excretion half-lives (t1/2) (in h) were ascertained as described in Sect. “Evaluation of blood kinetics” by plotting the current excretion rates as function of time.

Setting [4] is: human, in vivo, po, 0.3 mg/kg, t1/2 (0–24 h) in blood.
Setting [5] is: human, in vivo, po, 0.3 mg/kg, t1/2 (24–48 h) in blood.
The mark [6] stands for this setting: human, in vivo, po, tmax in blood.
[7] abbreviates: 0.3 mg/kg, human urine, monophasic, oral 0.3 mg/kg bw, n = 3.
The mark [8] stands for this setting: post-dosage human urine, collected until 72 h.
Where [9] appears, read: human, whole blood, po, 0.3 mg/kg bw, human whole blood, oral 0.3 mg UV 328/kg body weight, mean ± SD, n = 3.
[10] abbreviates: human, whole blood, po, 0.3 mg/kg bw, human whole blood, oral 0.3 mg UV 328/kg body weight, n = 3, read-out: tmax in blood.
[11] abbreviates: human, whole blood, po, 0.3 mg/kg, first elimination phase, human blood, oral 0.3 mg/kg bw, n = 3, read-out: t1/2 (0–24 h) in blood (converted).
Where [12] appears, read: human, whole blood, po, 0.3 mg/kg, second elimination phase, human blood, oral 0.3 mg/kg bw, n = 3, read-out: t1/2 (24–48 h) in blood (converted).
Setting [13] is: sum of plasma concentrations / sum of blood concentrations, one volunteer (n = 1).

A word on the Tmax: it is the time at which the peak concentration occurs. Take `CCC(C)(C)c1cc(C(C)(C)C(C)=O)cc(-n2nc3ccccc3n2)c1O` [UV 328-4/3-CO, 2-(2H-benzotriazol-2-yl)-4-(2-methylbutan-3-on-2-yl)-6-(tert-pentyl)phenol]: the Conjugation ratio in series [1] turned out to be 100%. The molecule further displayed a concentration at 24 h in “clinical” (human, in vivo, po, 0.3 mg/kg) of 0.9 ± 0.3 ng/mL. Besides, the results for the half-life in the series “clinical” (setting [4]) and in the series “clinical” (setting [5]) were 498 min and 984 min, respectively. In addition, the Tmax in the series “clinical” (setting [6]) is 8 h. In addition, the “p/b ratio (plasma to blood ratio)” value in series [2] (human, in vivo) was determined as 3.2.

As usually defined, the Cmax is the peak of the concentration-time curve. `CC(=O)C(C)(C)c1cc(-n2nc3ccccc3n2)c(O)c(C(C)(C)C(C)O)c1` (stereo not drawn) [UV 328-4/3-CO-6/3-OH, 2-(2H-benzotriazol-2-yl)-4-(2-methylbutan-3-on-2-yl)-6-(3-hydroxy-2-methylbutan-2-yl)phenol]: the Tmax in series [3] (0.3 mg/kg) was 11.3 h; in “clinical” (setting [10]), 24 to 34 h. For the same molecule, the half-life in series [3] (setting [7]) is 3210 min; in the series “clinical” (human, whole blood, oral, 0.3 mg/kg bw, human blood, plateau-shaped elimination curve, phase not specified, read-out: elimination half-life in blood), over 36000 min; in the series “clinical” (setting [11]), under 36000 min; in “clinical” (setting [12]), under 36000 min. For the same molecule, the “REmax (maximum renal excretion rate)” value in series [3] (oral 0.3 mg/kg bw, n = 3) is reported as 0.65 ± 0.02 µg/h. Besides, the “FUE after 24 h (urinary excretion factor as dose equivalents of UV 328)” value in series [3] (human urine, n = 3) was found to be 0.038 ± 0.010%. Moreover, in series [3] (human urine, n = 3), the “FUE after 72 h ≙ Fraction of oral dose” value was 0.081% and 0.081 ± 0.018%. Further, in series [3] (human urine, monophasic, oral 0.3 mg/kg bw, n = 3, 0.3 mg/kg), the “t½ (renal elimination half-life)” value is 53.3 h. In addition, in series [3] (setting [8]), the “detection in urine samples after exposure” value (“detection in urine samples” for short) is “still detectable in urine after the observed period of 72 h”. Further, in series [3] (n = 3), the “share of cumulative amounts of all quantified analytes in urine” value is on record as 65.8 ± 10.9%. In addition, the Conjugation ratio in series [1] was 100%. In the series “clinical” (n = 3), the “share among the quantified metabolites in blood” value is listed as 13.7 ± 2.5%. In the series “clinical” (setting [9]), the Cmax is 4.95 ± 0.72 ng/mL. Also, in the series “clinical” (human blood, post-dosage), the “time at which the plateau of blood levels was reached” value is “around 10 h”. Also, the “p/b ratio (plasma to blood ratio)” value in series [2] (setting [13]) turned out to be 2.0.

Regarding `CCC(C)(C)c1cc(C(C)(C)C(C)O)cc(-n2nc3ccccc3n2)c1O` (stereo not drawn) [UV 328-4/3-OH, 2-(2H-benzotriazol-2-yl)-4-(3-hydroxy-2-methylbutan-2-yl)-6-(tert-pentyl)phenol], the Tmax came to 9.3 h in series [3] (0.3 mg/kg) and 10 h in “clinical” (setting [10]). Also, the half-life in series [3] (setting [7]) is 2780 min; in “clinical” (setting [11]), 354 min; in the series “clinical” (setting [12]) it was 942 min. Moreover, the “REmax (maximum renal excretion rate)” value in series [3] (oral 0.3 mg/kg bw, n = 3) is reported as 0.10 ± 0.04 µg/h. In series [3] (human urine, n = 3), the “FUE after 24 h (urinary excretion factor as dose equivalents of UV 328)” value came out at 0.004 ± 0.001%. In series [3] (human urine, n = 3), the “FUE after 72 h ≙ Fraction of oral dose” value is 0.007 ± 0.003%. Also, in series [3] (n = 3), the “share of cumulative amounts of all quantified analytes in urine” value is on record as 6.1 ± 2.3%. In addition, in series [1], the Conjugation ratio is reported as 100%. Further, in the series “clinical” (n = 3), the “share among the quantified metabolites in blood” value is given as 19.5 ± 4.9%. The Cmax in “clinical” (setting [9]) stood at 7.4 ± 0.9 ng/mL. Also, the concentration at 24 h in “clinical” (whole blood, human blood, 24 h after oral 0.3 mg/kg bw, mean ± SD, n = 3, read-out: mean blood level 24 h after exposure) came to 1.5 ± 0.5 ng/mL. Also, the tmax in blood in the series “clinical” (human whole blood, oral 0.3 mg UV 328/kg body weight, n = 3) is recorded as 8 h. Besides, in series [2] (setting [13]), the “p/b ratio (plasma to blood ratio)” value amounted to 2.1.

`CCC(C)(C)c1cc(-n2nc3ccccc3n2)c(O)c(C(C)(C)C(C)=O)c1` [UV 328-6/3-CO, 2-(2H-benzotriazol-2-yl)-6-(2-methylbutan-3-on-2-yl)-4-(tert-pentyl)phenol]: the “detection in urine samples” value in series [3] (setting [8]) is recorded as “not detected”. Besides, in “clinical” (human blood, plateau until 48 h after exposure), the “plateau concentration in blood” value is about 0.1 µg/L. In the series “clinical” (human whole blood, oral 0.3 mg UV 328/kg body weight, mean ± SD, n = 3), the cmax in blood result is “< LOQ”.

For the molecule `CCC(C)(C)c1cc(-n2nc3ccccc3n2)c(O)c(C(C)(C)C(C)O)c1` (stereo not drawn) [UV 328-6/3-OH, 2-(2H-benzotriazol-2-yl)-6-(3-hydroxy-2-methylbutan-2-yl)-4-(tert-pentyl)phenol], in series [1] (human, in vivo), the “share excreted via urine without conjugation to glucuronic acid or sulfate” value is “about 3%”. For the same molecule, the Conjugation ratio in series [1] was 97%. This molecule returned a concentration at 24 h in “clinical” (human, in vivo, po, 0.3 mg/kg) of 5.2 ± 0.6 ng/mL. Further, the half-life in “clinical” (setting [4]) was 540 min; in “clinical” (setting [5]), 1070 min. The Tmax in the series “clinical” (setting [6]) stood at 8 h. The molecule further gave a tmax in blood in “clinical” (both, human, in vivo, po) of 10 h. The “p/b ratio (plasma to blood ratio)” value in series [2] (human, in vivo) worked out at 2.3.

On to `CCC(C)(C)c1cc(-n2nc3ccc(O)cc3n2)c(O)c(C(C)(C)CC)c1` [UV 328-BTOH, 2-(2H-5-hydroxybenzotriazol-2-yl)-4,6-(di-tert-pentyl)phenol], for which the “detection in urine samples” value in series [3] (in vivo) was “not detected”. For the same molecule, the “detection in blood samples after exposure” value in the series “clinical” (human, in vivo, po, 0.3 mg/kg) was “not detected”.
